From US20090117545A1 (priority 2004, published 2009)
Where “and” joins values, the source holds several entries; their conditions need not be identical. Identical values can stand only once. Entries after “also recorded” stand apart in the source; their conditions may differ.

Assays:
[1] = tested on: wild-type gcvT IGR fused to β-galactosidase reporter gene; conditions: amino acid present in growth medium
Description: Specifically, nucleotides −429 to +7 relative to the B. subtilis gcvT translation start site of the first open reading frame of the gcvT operon was PCR amplified as an EcoRI-BamHI fragment from B. subtilis strain 1A2 (Bacillus Genetic Stock Center, Columbus, Ohio). The wild type construct was cloned into pDG1661 at a site directly upstream of the lacZ reporter gene. […] The IGR used for this study (FIG. 8A) differed in sequence at three nucleotides (151-153, TTT to AAA) relative to the genomic database. Plasmids generated were integrated into the amyE locus of strain 1A2. Transformants were selected for chloramphenicol (5 μg/ml) resistance and screened for sensitivity to spectinomycin (100 μg/ml). Cells were grown in defined media (0.5% w/v glucose, 2 g/L (NH4)2SO4, 25 g/L K2HPO4-3H2O, 6 g/L KH2PO4, 1 g/L sodium citrate, 0.2 g/L MgSO4-7H2O, 2 μM MnCl2, 15 mM glutamate, and 5 mg/L chloramphenicol) to an A595 of 0.1, pelleted, and resuspended in minimal media supplemented with 500 μg/L of amino acid as indicated for each experiment. Cultures were incubated for an additional 3 hr and β-galactosidase assays were performed as described previously (Miller, A Short Course in Bacterial Genetics (Cold Spring Harbor Laboratory Press, Cold Spring Harbor, N.Y., 1992)). Miller units plotted are the average of six values (three assays conducted in duplicate).

[2] = tested on: VC I-II RNA (tandem type I and type II glycine aptamers, VC1422 gene); test: In-line probing of VC I-II RNA; format: binding, Vibrio cholerae; conditions: for structural modulation (change in pattern of spontaneous cleavage) of VC I-II: ligand at 1 mM
Description: In-line probing of the VC I-II construct (FIG. 1B), derived from the VC1422 gene from V. cholerae, was carried out with trace amounts of 5′ ^32P-labeled RNA using methods that are similar to those described elsewhere in Nahvi et al., Chem. Biol. 9, 1043 (2002), and Winkler et al., Nature 419, 952 (2002). RNAs were prepared by transcription from the appropriate DNA template carrying a T7 RNA polymerase promoter, which was generated by PCR from V. cholerae (C6706-st2) genomic DNA using the primers 5′-[sequence]-[sequence] […] The underlined nucleotides identify sequences corresponding to the promoter for T7 RNA polymerase.
In a typical in line probing assay, ˜15 nM of labeled RNA is incubated in buffer (20 mM MgCl2, 50 mM Tris, pH 8.3 at 25° C., 100 mM KCl) in the absence or presence of ligand for 40 hrs at 23° C. After incubation, spontaneously cleaved products were separated using 10% denaturing PAGE and were visualized and quantitated using a PhosphorImager (Molecular Dynamics).
Lowercase letters in FIG. 1B and FIG. 8A identify nucleotides that were added to the construct to permit efficient transcription in vitro using RiboMAX transcription (Promega). For the data presented in FIG. 5, fraction bound equals 1 minus the normalized fraction cleaved in the in-line probing assay at U207-C208 for VC II and U74 for VC I-II.
Curves for the absence of cooperativity (blue curve, n=1) and presence of perfect cooperativity at two binding sites (orange curve, n=2) are depicted. […] The fraction of RNA cleaved at four regions in both RNA constructs was determined by in-line probing. The amount of cleavage was normalized to range from 0 to 1 using the minimum and maximum amounts cleaved for each region.

[3] = tested on: gcvT 5'-UTR glycine riboswitch; test: Single-round in vitro transcription termination assay; format: biochemical, Bacillus subtilis; conditions: for effect on production of full-length RNA transcripts: single-round in vitro transcription
Description: Transcription termination assays were conducted as described previously (Sudarsan et al., Genes Dev. 17, 2688 (2003); Landick et al., Methods Enzymol. 274, 334 (1996)).
Transcription assays were performed using a method adapted from that described earlier (Edelstein, Annu. Rev. Biochem. 44, 209 (1975)). […] DNA templates encompassing nucleotides −406 to +7 relative to the translation start site for the gcvT operon in B. subtilis were used. Transcription assays included 20 mM Tris-HCl (pH 8.0 at 23° C.), 20 mM NaCl, 14 mM MgCl2, 0.1 mM EDTA, 0.01 mg/mL BSA, and 1% v/v glycerol. Each reaction (10 μL) contained 1 pmole of template DNA and 9 U E. coli RNA polymerase (Epicenter) and was conducted with the type and concentration of target molecule as indicated for each experiment. Transcription was initiated by the addition of the dinucleotide ApA (135 μM), GTP and UTP (2.5 μM each), ATP (1 μM), and [α-^32P]-ATP (4_Ci). After 5 min incubation at 37° C., 50 μM of each NTP was added along with 0.1 mg/mL heparin to prevent re-initiation by RNA polymerase. Transcription products generated after a 10 minute incubation were separated by denaturing 6% PAGE and visualized by using a PhosphorImager. […] Single-round transcription assays were conducted as described for FIG. 9A. […] Single-round transcription assays were conducted as described for FIG. 9A with 50 μM rNTPs.

VC I-II RNA = test: Equilibrium dialysis with 3H-glycine, VC I-II RNA; format: binding, Vibrio cholerae; conditions: for restoration of equal distribution of 3H-glycine by unlabeled competitor: VC I-II 100 μM, excess (1 mM) unlabeled competitor after preequilibration
Description: (§1) Methods used for equilibrium dialysis were similar to those described in Mandal et al., Cell 113, 577 (2003). Specifically, equilibrium dialysis assays were conducted using a DispoEquilibrium Dialyzer (Harvard Biosciences), wherein chamber a and b are separated by a 5,000 MWCO membrane. […] Chamber b contained VC II or VC I-II RNA transcripts at 100 μM concentration suspended in the same buffer. Equilibrations were allowed to proceed for 10 hrs at 23° C. Subsequently 5 μL of sample was drawn from each chamber and quantitated by liquid scintillation counting. […] For both RNAs, experiments i-iii (FIG. 4B) were conducted by first pre-equilibrating the chambers (left data point), and then adding unlabeled competitor as indicated followed by a second equilibration (right data point). RNAs were prepared by in vitro transcription using the appropriate PCR DNA templates as described above.
(§2) Other notations are the same as those described for FIG. 1C.

VC II RNA = test: Equilibrium dialysis with 3H-glycine, VC II RNA; format: binding, Vibrio cholerae; conditions: for restoration of equal distribution of 3H-glycine by unlabeled competitor: VC II 100 μM, excess (1 mM) unlabeled competitor after preequilibration
Description: as §1, §2

[4] = tested on: VC II RNA (type II glycine aptamer alone); test: In-line probing of VC II RNA; format: binding, Vibrio cholerae; conditions: for EC50: in-line probing, read-out: concentration of ligand needed to cause half-maximal structure modulation of VC II
[5] = tested on: variant VC I-II construct wherein aptamer II has been mutated; conditions: relative to wild-type VC I-II

Row | SMILES | structural modulation (change in pattern of spontaneous cleavage) of VC I-II [2] | effect on production of full-length RNA transcripts [3] | restoration of equal distribution of 3H-glycine by unlabeled competitor (VC I-II RNA) | restoration of equal distribution of 3H-glycine by unlabeled competitor (VC II RNA) | EC50 [4] | also measured
1 | C[C@H](N)C(=O)O [L-alanine] | did not induce change | failed to trigger an increase | failed to restore equal distribution | failed to restore equal distribution |  | expression of β-galactosidase reporter [1]: low amount of gene expression
2 | N[C@@H](CO)C(=O)O [L-serine] |  | rejected; also recorded: failed to trigger an increase | failed to restore equal distribution | failed to restore equal distribution |  | 
3 | NCC(=O)NO [glycine hydroxamate] |  |  |  |  | ~1000 µM | 
4 | COC(=O)CN [glycine methyl ester] | measurable structural modulation |  |  |  | ~100 µM | 
5 | CC(C)(C)OC(=O)CN [glycine tertiary butyl ester, glycine tert-butyl ester] | measurable structural modulation |  |  |  | ~1000 µM | 
6 | NCC(=O)O [glycine] | caused changes in the pattern of spontaneous cleavage | substantial increase in the amount of full-length RNA transcript | restored an equal distribution | restored an equal distribution | ~10 µM | increase in glycine concentration for change from 10% to 90% ligand-bound RNA ([2]; VC I-II): 10 fold; Hill coefficient n ([2]; VC I-II, best fit of four regions, maximum for two sites is 2): 1.64 and 1.64±0.07; Kd ([2]; VC I-II, best fit of four regions, read-out: constant K of Hill equation): 40 ± 1 µM; glycine concentration at which full-length transcripts are favored ([3]; added to transcription mixture): > 10 µM; Hill coefficient of best-fit curve to transcription data ([3]; yield of full-length transcripts versus glycine): 1.4; increase in the amount of glycine bound by RNA (VC I-II RNA; one equivalent of VC I-II RNA (two aptamer equivalents) versus VC II, 2 expected): 1.6 fold; loss of affinity in the unaltered aptamer I [5]: more than 1,000 fold; equivalents of glycine bound by RNA (VC II RNA; three equivalents of glycine versus one equivalent of VC II RNA (100 μM), 1 expected): 0.8 equivalents; Hill constant n ([4]; VC II, best fit of four regions): 0.97±0.04; Kd ([4]; VC II, best fit of four regions, read-out: constant K of Hill equation): 24 ± 12 µM; increase in glycine concentration for change from 10% to 90% ligand-bound RNA ([4]; single aptamer RNA, printed as VC I RNA): 100 fold
